Among the test systems are OVCAR-4 ovarian; SF-268 CNS; OVCAR-5 ovarian; TK-10 renal; HT29 colon; COLO 205 colon; BT-549 breast; MDA-N; SF-539 CNS; UO-31 renal; UACC-257 melanoma; SF-295 CNS; HCT-116 colon; HOP-92 NSCLC; MCF7 breast; NCI-H226 lung; SR leukemia; CCRF-CEM leukemia; LOX IMVI melanoma; 786-0 renal.
What all share (assay): growth of human tumour cells (NCI), 48 h

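Dose response: 5 concentrations. Exposure: 48 h. Format: 96-well plates. Endpoint: linear interpolation; highest concentration if not reached. TGI marks complete inhibition of growth.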

For the compound `O=C(CNc1ccc([N+](=O)[O-])cc1)Nn1c(-c2ccccc2)nc2ccccc2c1=O`, the TGI in the assay with OVCAR-4 ovarian was 10.3 µM; in the assay on SF-268 CNS, 16.4 µM; in the assay with OVCAR-5 ovarian it was 16.3 µM; in the assay with TK-10 renal it was 17 µM; with HT29 colon it was 13.6 µM; in the assay on COLO 205 colon it was 5.31 µM. Besides, the TGI in the assay on BT-549 breast amounted to 4.25 µM; with MDA-N, 13.8 µM; in the assay on SF-539 CNS, 6.61 µM; in the assay with UO-31 renal, 14.1 µM; in the assay with UACC-257 melanoma, 36.7 µM; in the assay with SF-295 CNS, 29.8 µM. Also, the TGI with HCT-116 colon was 13 µM; with HOP-92 NSCLC it was 6.66 µM; in the assay with MCF7 breast, 7.08 µM; with NCI-H226 lung, 25.2 µM; with SR leukemia it was over 37.4 µM; with CCRF-CEM leukemia it was over 21.6 µM. Besides, the TGI in the assay with LOX IMVI melanoma came out at 2.23 µM; in the assay with 786-0 renal, 6.26 µM.
For the compound `CC(NC1=NCCO1)c1ccsc1` (stereo not drawn), the TGI with OVCAR-4 ovarian is over 100 µM; with OVCAR-5 ovarian, over 100 µM; with TK-10 renal, over 100 µM; with HT29 colon, 42.7 µM; in the assay with COLO 205 colon, 35.3 µM; in the assay on BT-549 breast it was over 100 µM. Further, the TGI in the assay with MDA-N is 65.8 µM; with SF-539 CNS, 38.2 µM; in the assay with UO-31 renal, over 100 µM; in the assay on UACC-257 melanoma, 40.2 µM; in the assay on SF-295 CNS it was 39.4 µM; in the assay on HCT-116 colon, 34.1 µM. Also, the TGI was 92.5 µM in the assay on HOP-92 NSCLC; over 100 µM with MCF7 breast; over 100 µM in the assay on NCI-H226 lung; 99.6 µM with SR leukemia; 46.5 µM with CCRF-CEM leukemia; 35 µM with LOX IMVI melanoma. This compound also returned a TGI in the assay with 786-0 renal of 42.9 µM.
Take `COc1ccc(C[C@@H]2OC3(C=CC(=O)CC3Sc3ccccc3)O[C@H]2Cc2ccc(OC)cc2)cc1` (stereo partly drawn): the TGI with OVCAR-4 ovarian worked out at 3.7 µM; in the assay with SF-268 CNS, 1.75 µM; with OVCAR-5 ovarian, 2.58 µM; in the assay with TK-10 renal, 3.88 µM; with HT29 colon, 3.19 µM; with COLO 205 colon, 3.36 µM. The TGI with BT-549 breast is 1.49 µM; with MDA-N, 4.98 µM; in the assay with SF-539 CNS it was 3 µM; with UO-31 renal it was 2.28 µM; with UACC-257 melanoma it was 3.16 µM; in the assay on SF-295 CNS, 4.69 µM. The TGI was determined as 2.49 µM in the assay with HOP-92 NSCLC; 1.98 µM in the assay on MCF7 breast; 3.33 µM with NCI-H226 lung; 0.583 µM with SR leukemia; 0.768 µM in the assay with CCRF-CEM leukemia; 1.72 µM in the assay with LOX IMVI melanoma. The same compound yielded a TGI in the assay on 786-0 renal of 0.365 µM.
In the case of `CC(O)C1(O)C(O)CC(OC2c3cc4c(c(O)c3[C@@H]3C[C@@]2(C)OC32C=c3cc[nH]c3=N2)C(=O)c2cccc(O)c2C4=O)OC1C` (stereo partly drawn), the TGI with OVCAR-4 ovarian turned out to be 7.2 µM; with SF-268 CNS it was 4.38 µM; with OVCAR-5 ovarian, 9.49 µM; in the assay on TK-10 renal it was 7.32 µM; with HT29 colon, 2.68 µM; in the assay with COLO 205 colon, 1.97 µM. In addition, the TGI in the assay on BT-549 breast came to 19.3 µM; with MDA-N it was 3.41 µM; in the assay with SF-539 CNS, 2.79 µM; in the assay with UO-31 renal, 8.44 µM; with UACC-257 melanoma it was 3.12 µM; in the assay with SF-295 CNS, 5.73 µM. In addition, the TGI with HCT-116 colon came out at 3.31 µM; with HOP-92 NSCLC it was 7.44 µM; in the assay with MCF7 breast it was 1.69 µM; with NCI-H226 lung it was 3.17 µM; in the assay on SR leukemia, 2.36 µM; with CCRF-CEM leukemia it was 1.72 µM. Besides, the results for the TGI in the assay with LOX IMVI melanoma and with 786-0 renal were 3.17 µM and 4.98 µM, respectively.
In the case of `O=C(Cc1csc2[n+]1C(=O)/C(=C/c1ccc(Cl)cc1)S2)Nc1ccccc1`, the TGI with OVCAR-4 ovarian was over 100 µM; in the assay with SF-268 CNS, 78 µM; in the assay with OVCAR-5 ovarian, 80.9 µM; in the assay on TK-10 renal, 87.7 µM; with HT29 colon, 76.1 µM; in the assay with COLO 205 colon, 30.2 µM. Moreover, the TGI is 60.3 µM in the assay with BT-549 breast; over 100 µM in the assay with MDA-N; 84.2 µM with SF-539 CNS; over 100 µM in the assay with UO-31 renal; 58.3 µM with UACC-257 melanoma; over 100 µM in the assay on SF-295 CNS. Moreover, the TGI in the assay with HCT-116 colon was 42.5 µM; with HOP-92 NSCLC, 78.4 µM; in the assay with MCF7 breast, 66.1 µM; in the assay on NCI-H226 lung, 49.6 µM; in the assay on SR leukemia it was over 100 µM; in the assay on CCRF-CEM leukemia, over 100 µM. For the same compound, the TGI in the assay on LOX IMVI melanoma was found to be 34.4 µM; with 786-0 renal, 90.9 µM.
Consider `NC(=S)NN=Cc1ccccc1OCc1cccc(COc2ccccc2C=NNC(N)=S)n1`, for which the TGI in the assay on OVCAR-4 ovarian was over 100 µM; in the assay with SF-268 CNS, over 100 µM; in the assay on OVCAR-5 ovarian, over 100 µM; with TK-10 renal it was 32.3 µM; with HT29 colon, over 100 µM; in the assay with COLO 205 colon, over 100 µM. Further, the TGI with BT-549 breast was 31 µM; with MDA-N, over 100 µM; with SF-539 CNS, over 34.6 µM; in the assay with UO-31 renal, over 93.5 µM; with UACC-257 melanoma it was over 100 µM; in the assay on SF-295 CNS it was 20 µM. For the same compound, the TGI in the assay on HCT-116 colon is over 93.6 µM; in the assay with HOP-92 NSCLC it was 14.3 µM; with MCF7 breast, over 100 µM; in the assay on NCI-H226 lung, over 89.6 µM; in the assay on SR leukemia it was over 100 µM; with CCRF-CEM leukemia it was over 100 µM. Also, the TGI with LOX IMVI melanoma was over 100 µM; with 786-0 renal it was over 72 µM.
Regarding `CCOC(=O)CCCc1cc(=O)c2c(C)c3[nH]c4ccc(Cl)cc4c3c(C)c2[nH]1`, the TGI in the assay on OVCAR-4 ovarian is 59.1 µM; in the assay on SF-268 CNS it was 54 µM; in the assay on OVCAR-5 ovarian, over 100 µM; in the assay with TK-10 renal, 48.8 µM; in the assay with HT29 colon it was 53.8 µM; in the assay with COLO 205 colon it was over 100 µM. Further, the TGI was 41.8 µM in the assay with BT-549 breast; over 100 µM with MDA-N; 31.6 µM with SF-539 CNS; 45.4 µM with UO-31 renal; over 100 µM in the assay on UACC-257 melanoma; 67 µM in the assay with SF-295 CNS. Moreover, the TGI in the assay on HCT-116 colon was over 100 µM; in the assay with HOP-92 NSCLC, 68.2 µM; in the assay on MCF7 breast, 47.4 µM; in the assay on NCI-H226 lung it was 61 µM; in the assay on SR leukemia, over 100 µM; with CCRF-CEM leukemia, over 100 µM. The TGI in the assay with LOX IMVI melanoma is over 100 µM; with 786-0 renal, 38.2 µM.

Source of the values: PubChem BioAssay (NCI).
